Results from ChEMBL document CHEMBL5696442, “Discovery of type II inhibitors of TGFβ-activated kinase 1 (TAK1) and mitogen-activated protein kinase kinase kinase kinase 2 (MAP4K2)” (J Med Chem, 2015).
Calls of active or inactive are those of the source. The calls are words filed in the database; no cut-off is given here.

Experiments:
[1] = system: Tyrosine-protein kinase ABL1 (Homo sapiens), P00519 [H396P]; test: Inhibition of nonphosphorylated ABL1 H396P mutant (unknown origin) at 1 uM by Ambit Kinomescan binding assay relative to control
[2] = target: T1, Mitogen-activated protein kinase kinase kinase 5 (Homo sapiens) (UniProt Q99683); test: Inhibition of ASK1 (unknown origin) at 1 uM by Ambit Kinomescan binding assay relative to control
T1 sequence (whole entry): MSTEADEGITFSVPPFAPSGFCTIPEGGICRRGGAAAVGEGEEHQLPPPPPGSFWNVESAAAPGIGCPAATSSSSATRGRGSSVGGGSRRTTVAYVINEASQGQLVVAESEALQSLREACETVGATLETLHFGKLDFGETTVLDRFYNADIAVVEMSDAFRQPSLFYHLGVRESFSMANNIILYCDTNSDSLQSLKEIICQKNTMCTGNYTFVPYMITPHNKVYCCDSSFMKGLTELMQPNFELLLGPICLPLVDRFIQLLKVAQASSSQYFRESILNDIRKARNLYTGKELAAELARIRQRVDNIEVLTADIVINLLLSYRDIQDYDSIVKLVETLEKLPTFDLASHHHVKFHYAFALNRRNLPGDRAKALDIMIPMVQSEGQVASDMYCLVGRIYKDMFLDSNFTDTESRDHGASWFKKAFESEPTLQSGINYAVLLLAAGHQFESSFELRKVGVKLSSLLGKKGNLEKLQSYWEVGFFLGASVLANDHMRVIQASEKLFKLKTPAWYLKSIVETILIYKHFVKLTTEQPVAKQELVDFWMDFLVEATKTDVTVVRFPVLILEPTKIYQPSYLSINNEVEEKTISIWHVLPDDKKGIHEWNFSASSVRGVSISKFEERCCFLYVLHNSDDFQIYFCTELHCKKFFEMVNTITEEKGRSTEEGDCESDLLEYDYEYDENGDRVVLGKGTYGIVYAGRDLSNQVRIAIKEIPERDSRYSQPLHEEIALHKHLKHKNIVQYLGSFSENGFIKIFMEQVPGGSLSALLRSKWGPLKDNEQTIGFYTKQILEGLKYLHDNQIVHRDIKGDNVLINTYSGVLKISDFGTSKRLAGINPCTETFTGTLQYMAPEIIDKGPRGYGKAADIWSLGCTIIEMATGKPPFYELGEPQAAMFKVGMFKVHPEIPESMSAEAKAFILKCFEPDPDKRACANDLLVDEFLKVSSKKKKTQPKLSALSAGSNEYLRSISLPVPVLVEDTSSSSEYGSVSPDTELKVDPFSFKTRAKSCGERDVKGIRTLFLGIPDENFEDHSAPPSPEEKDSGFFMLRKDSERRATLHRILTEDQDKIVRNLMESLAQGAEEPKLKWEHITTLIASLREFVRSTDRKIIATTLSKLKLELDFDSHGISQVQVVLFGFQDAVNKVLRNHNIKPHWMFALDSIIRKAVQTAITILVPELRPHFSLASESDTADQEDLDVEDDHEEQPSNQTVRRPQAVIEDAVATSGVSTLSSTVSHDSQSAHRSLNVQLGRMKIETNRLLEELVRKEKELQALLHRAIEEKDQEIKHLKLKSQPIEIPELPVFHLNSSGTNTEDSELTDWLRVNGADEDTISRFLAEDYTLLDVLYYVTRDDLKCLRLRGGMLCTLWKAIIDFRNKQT

[3] = target: T2, Dual specificity mitogen-activated protein kinase kinase 7 (Homo sapiens) (UniProt O14733); test: Inhibition of MAP2K7 Lys2 labeling site in human A-375 cells at 5 uM by KiNativ Profiling analysis relative to control; format: cell-based
T2 sequence (whole entry): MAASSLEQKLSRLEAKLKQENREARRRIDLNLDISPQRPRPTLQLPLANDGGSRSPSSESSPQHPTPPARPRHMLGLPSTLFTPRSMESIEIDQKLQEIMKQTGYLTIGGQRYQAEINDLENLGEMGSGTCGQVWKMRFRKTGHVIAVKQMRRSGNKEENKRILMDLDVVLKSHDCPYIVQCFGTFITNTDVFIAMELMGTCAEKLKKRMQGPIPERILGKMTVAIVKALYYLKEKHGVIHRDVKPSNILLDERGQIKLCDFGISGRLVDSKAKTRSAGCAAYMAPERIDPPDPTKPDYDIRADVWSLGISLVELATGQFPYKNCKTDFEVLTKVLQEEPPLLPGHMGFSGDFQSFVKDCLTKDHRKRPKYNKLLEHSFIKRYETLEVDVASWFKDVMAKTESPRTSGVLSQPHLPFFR

[4] = target: Cyclin-dependent kinase 17 (Homo sapiens) (UniProt Q00537); test: Inhibition of PCTAIRE2 Lys1 labeling site harbouring SKLTENLVALKEIR in human A-375 cells at 0.05 uM by KiNativ Profiling analysis relative to control; format: cell-based
[5] = target: SRSF protein kinase 3 (Homo sapiens) (UniProt Q9UPE1); test: Inhibition of SRPK3 (unknown origin) at 10 uM by Ambit Kinomescan binding assay
[6] = target: Mitogen-activated protein kinase 10 (Homo sapiens, UniProt P53779); test: Inhibition of JNK3 (unknown origin) at 10 uM by Ambit Kinomescan binding assay relative to control
[7] = target: Serine/threonine-protein kinase Nek6 (Homo sapiens) (UniProt Q9HC98); test: Inhibition of NEK6 (unknown origin) at 10 uM by Ambit Kinomescan binding assay
[8] = target: T3, Phosphatidylinositol 5-phosphate 4-kinase type-2 beta (Homo sapiens) (UniProt P78356); test: Inhibition of PIP4K2B ATP labeling site harbouring AKDLPTFKDNDFLNEGQK in human Huh-7 cell lysate at 1 uM by KiNativ Profiling analysis relative to control; format: subcellular
T3 sequence (whole entry): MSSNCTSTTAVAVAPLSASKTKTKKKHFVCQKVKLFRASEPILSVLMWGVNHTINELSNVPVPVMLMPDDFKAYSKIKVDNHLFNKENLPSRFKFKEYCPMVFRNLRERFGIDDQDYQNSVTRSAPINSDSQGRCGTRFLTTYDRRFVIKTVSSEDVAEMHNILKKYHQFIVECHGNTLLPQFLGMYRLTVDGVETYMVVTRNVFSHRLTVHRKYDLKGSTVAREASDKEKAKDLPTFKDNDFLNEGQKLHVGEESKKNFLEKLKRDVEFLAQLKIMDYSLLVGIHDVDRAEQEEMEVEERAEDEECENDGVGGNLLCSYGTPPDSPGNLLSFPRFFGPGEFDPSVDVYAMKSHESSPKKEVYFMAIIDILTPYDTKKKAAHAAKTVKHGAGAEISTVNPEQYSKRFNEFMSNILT

[9] = Inhibition of KHS1 Lys2 labeling site harbouring DIKGANILLTDHGDVKLADFGVAAK in human Huh-7 cells at 1 uM by KiNativ Profiling analysis relative to control; conditions: condition cancer
[10] = target: Wee1-like protein kinase (Homo sapiens) (UniProt P30291); test: Inhibition of Wee1 Lys2 labeling site in human Huh-7 cell lysate at 1 uM by KiNativ Profiling analysis relative to control; format: subcellular
Wee1-like protein kinase (Homo sapiens), sequence (P30291 whole entry, looked up): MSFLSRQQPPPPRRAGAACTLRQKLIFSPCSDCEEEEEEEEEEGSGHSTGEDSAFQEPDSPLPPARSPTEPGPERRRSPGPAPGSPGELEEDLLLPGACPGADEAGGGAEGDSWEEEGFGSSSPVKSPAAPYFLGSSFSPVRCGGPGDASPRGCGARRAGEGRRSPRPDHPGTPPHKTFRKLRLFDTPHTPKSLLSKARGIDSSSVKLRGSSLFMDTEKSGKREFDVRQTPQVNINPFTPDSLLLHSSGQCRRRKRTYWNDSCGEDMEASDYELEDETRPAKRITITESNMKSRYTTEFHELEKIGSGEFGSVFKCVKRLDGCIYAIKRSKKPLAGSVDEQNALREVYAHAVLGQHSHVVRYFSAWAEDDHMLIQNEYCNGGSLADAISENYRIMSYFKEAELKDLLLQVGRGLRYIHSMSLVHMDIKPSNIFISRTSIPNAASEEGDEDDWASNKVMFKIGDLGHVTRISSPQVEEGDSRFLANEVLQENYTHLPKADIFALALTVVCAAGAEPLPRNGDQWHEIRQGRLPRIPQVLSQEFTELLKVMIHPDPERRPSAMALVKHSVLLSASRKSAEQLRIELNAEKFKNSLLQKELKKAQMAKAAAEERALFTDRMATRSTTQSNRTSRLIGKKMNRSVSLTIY

Mitogen-activated protein kinase 10, sequence (P53779 whole entry): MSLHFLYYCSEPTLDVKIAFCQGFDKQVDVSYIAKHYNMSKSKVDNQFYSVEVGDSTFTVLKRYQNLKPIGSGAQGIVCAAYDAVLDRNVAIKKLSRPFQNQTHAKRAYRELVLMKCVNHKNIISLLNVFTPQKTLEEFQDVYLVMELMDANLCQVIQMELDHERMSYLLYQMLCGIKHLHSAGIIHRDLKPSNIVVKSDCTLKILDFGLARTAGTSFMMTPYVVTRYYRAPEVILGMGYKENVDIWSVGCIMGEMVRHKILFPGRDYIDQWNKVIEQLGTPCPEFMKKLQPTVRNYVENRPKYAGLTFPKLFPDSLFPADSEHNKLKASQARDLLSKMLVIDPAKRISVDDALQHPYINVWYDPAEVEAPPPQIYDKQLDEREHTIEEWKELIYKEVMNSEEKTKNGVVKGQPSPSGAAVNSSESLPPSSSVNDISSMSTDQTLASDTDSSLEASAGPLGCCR
SRSF protein kinase 3 (Homo sapiens), sequence (Q9UPE1 whole entry): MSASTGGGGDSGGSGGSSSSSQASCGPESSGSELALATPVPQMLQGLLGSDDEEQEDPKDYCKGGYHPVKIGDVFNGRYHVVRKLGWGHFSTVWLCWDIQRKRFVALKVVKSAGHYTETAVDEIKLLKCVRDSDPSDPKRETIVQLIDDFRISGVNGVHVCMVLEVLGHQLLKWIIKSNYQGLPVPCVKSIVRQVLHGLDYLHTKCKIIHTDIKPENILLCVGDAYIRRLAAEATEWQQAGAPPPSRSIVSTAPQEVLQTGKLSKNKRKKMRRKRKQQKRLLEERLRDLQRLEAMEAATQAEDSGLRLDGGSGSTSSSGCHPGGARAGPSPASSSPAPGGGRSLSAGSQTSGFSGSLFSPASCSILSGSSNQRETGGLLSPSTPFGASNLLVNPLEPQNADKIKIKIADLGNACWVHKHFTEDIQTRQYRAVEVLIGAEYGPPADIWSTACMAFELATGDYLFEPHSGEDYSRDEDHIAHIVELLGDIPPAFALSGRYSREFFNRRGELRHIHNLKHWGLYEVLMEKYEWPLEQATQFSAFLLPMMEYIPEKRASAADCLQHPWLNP
Cyclin-dependent kinase 17 (Homo sapiens), sequence (Q00537 whole entry, looked up): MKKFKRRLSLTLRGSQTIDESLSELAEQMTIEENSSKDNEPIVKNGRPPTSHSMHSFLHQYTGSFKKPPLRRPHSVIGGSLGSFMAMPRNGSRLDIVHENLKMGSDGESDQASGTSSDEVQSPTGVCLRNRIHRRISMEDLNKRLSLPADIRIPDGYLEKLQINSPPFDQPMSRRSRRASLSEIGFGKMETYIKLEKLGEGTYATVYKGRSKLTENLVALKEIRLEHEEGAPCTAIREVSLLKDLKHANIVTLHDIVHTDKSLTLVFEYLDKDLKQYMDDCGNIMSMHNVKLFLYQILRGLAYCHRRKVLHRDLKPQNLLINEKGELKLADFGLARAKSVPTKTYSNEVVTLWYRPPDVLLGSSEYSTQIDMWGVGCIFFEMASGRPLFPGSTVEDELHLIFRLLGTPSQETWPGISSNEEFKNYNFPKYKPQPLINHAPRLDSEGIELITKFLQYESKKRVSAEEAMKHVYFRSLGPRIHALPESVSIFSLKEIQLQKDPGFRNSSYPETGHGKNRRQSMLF
Serine/threonine-protein kinase Nek6 (Homo sapiens), sequence (Q9HC98 whole entry): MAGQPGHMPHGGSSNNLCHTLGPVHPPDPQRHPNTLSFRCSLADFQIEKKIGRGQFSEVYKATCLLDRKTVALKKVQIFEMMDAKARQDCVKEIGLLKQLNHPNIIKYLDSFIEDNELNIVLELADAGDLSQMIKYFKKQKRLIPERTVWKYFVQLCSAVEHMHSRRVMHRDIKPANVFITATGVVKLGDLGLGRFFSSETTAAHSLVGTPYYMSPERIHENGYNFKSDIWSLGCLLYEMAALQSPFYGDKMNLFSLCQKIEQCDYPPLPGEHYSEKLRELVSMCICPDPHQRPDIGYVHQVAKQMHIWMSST

CCN1CCN(Cc2ccc(NC(=O)c3ccc(C)c(/C=C/c4cnc5[nH]ccc5c4OC)c3)cc2C(F)(F)F)CC1
inhibition [1]: 0%
inhibition [2]: 100%
inhibition [3]: 57%

CCN1CCN(Cc2ccc(NC(=O)c3ccc(C)c(Oc4ccnc5[nH]ccc45)c3)cc2C(F)(F)F)CC1
inhibition [4]: 2.5%
inhibition [5]: inactive
inhibition [6]: 12%
inhibition [7]: inactive

CNc1cc(Oc2cc(C(=O)Nc3cc(N4CCN(C)CC4)cc(C(F)(F)F)c3)ccc2C)ncn1
inhibition [8]: -5.5%
inhibition at 1 µM [9]: 19.8%
inhibition [10]: -4.1%
